Where two headings read alike, the source gives them in different places.
Columns and labels:
[1] = system: SK-MEL-28; assay: Annexin V-FITC/PI staining, flow cytometry; assay type: cell-based, human
Excerpt: (§1) To discern whether cell death triggered by OOPs treatment occurred via apoptosis or necrosis under the experimental conditions applied in this study, live cells treated with OOPs were stained simultaneously with FITC-conjugated annexin V and propidium iodide (PI). Annexin V binds to phosphatidylserine (PS) translocating from the inner to the outer leaflet of the plasma membrane in apoptotic cells. Therefore, annexin V-FITC binding to PS labels live apoptotic cells with green FL. […] PS exposure to the extracellular space and cell membrane permeability were analyzed by flow cytometry as described in detail in the Experimental Section. […] OOP concentrations used were equal to the EC50 values for each cell line (Table 1). annexin V and PI staining discriminated between early- (i.e., annexin V +ve and PI −ve) and late-apoptotic cells (i.e., annexin V +ve and PI +ve), as well as between necrotic (i.e., annexin V −ve and PI +ve) and live (i.e., annexin V −ve and PI −ve) cells (Table 4).
(§2) Apoptosis and necrosis were assessed by double staining with annexin V-FITC and propidium iodide (PI) and were analyzed using flow cytometry (FACS). Human cancer cells were plated in 96-well culture plates in 100 μL of complete medium and were allowed to adhere overnight (~16 h). […] In detail, 0.5 μL of a 500× stock of each tested compound in DMSO was added directly into each well in a final volume of 250 μL culture medium and was gently mixed by pipetting. Control wells were prepared under the same experimental conditions by adding only DMSO at a final concentration of 0.2% (v/v). At the end of the treatment, the cells were detached by trypsinization, media with serum was added to deactivate trypsin, and the cells from three wells were pooled together by centrifugation (1000 rpm, 5 min, 24 °C), washed with cold PBS, centrifuged (1000 rpm, 5 min, 24 °C) and finally resuspended in cold 1× annexin V binding buffer (10 mM HEPES pH = 7.4, 150 mM NaCl, 2.5 mM CaCl2) at a density of 10^4 cells/mL. Staining was performed by incubating with annexin V- FITC and propidium iodide (PI; BioLegend) for 15 min at room temperature in the dark, according to the manufacturer’s instructions. […] Cells treated with Triton X-100 (0.25% (v/v)) for 5 min at 4 °C were used as controls for 100% permeabilization of the plasma membrane and maximum fluorescence staining with PI (positive control for cells in necrosis). The presence of live, apoptotic or necrotic cells was assessed with the FACS Calibur (Becton–Dickinson, San Jose, CA, USA). In total, 10,000 cells were analyzed per measurement and the acquired data were analyzed using the FlowJo V.10.0.8 software (Tree Star Inc., Ashland, OR, USA). Each condition was analyzed in duplicate, and the results presented are from 2 or 3 independent experiments.
(§3) Data showing OOPs’ apoptotic/necrotic effect were derived from two or three independent experiments and were presented as the means ± SE of the percentage (%) of both annexin V-positive cells (early apoptotic events) and % of annexin V/PI positive cells (late apoptotic events) over the whole cell population normalized to the corresponding events of the control cells, as determined using the FlowJo software.

[2] = system: sixteen human cancer cell lines originating from eight different tissues; assay: ATP-based luminescence cell viability assay, whole panel; settings: for EC50: 72 h treatment; for Bioactivity range on cancer cell lines (grade in words): Figure 3, sixteen cancer cell lines
Protocol: The antiproliferative/cytotoxic effects of the selected OOPs on each cell line were assessed by measuring the cellular ATP levels after 72 h treatments using an ATP-based luminescence assay. This assay, initially developed as a tumor chemosensitivity assay, has shown considerable promise as a general in vitro toxicity assay due to its high sensitivity that allows the detection of a small number of cells. Consequently, it can be applied to both cancer cell lines and primary tissue cells. […] The EC50 values were calculated by nonlinear regression (curve fit) using a sigmoidal dose–response equation (Figure 2A and Figure S2).
The OOPs tested in this study were first dissolved in an appropriate DMSO volume such as to prepare a final stock solution of 50 mM, which was further used to prepare various compound concentrations in DMSO-based solutions. The final DMSO concentration in the cell culture was maintained constant in all treated groups of any given experiment and never exceeded the value of 0.2% (v/v). For the treatment experiments, cells were plated in 96-well culture plates, in 100 μL of complete medium at a seeding density of 5000–10,000 cells/well—depending on cells’ size and doubling time—and were allowed to adhere overnight (~16 h). The next day, 150 μL of complete medium was added to each well and the cells were treated with various concentrations of OOPs. Each concentration was tested in triplicate and was repeated 2–3 times. To prepare the final concentration solutions, 0.5 μL of a 500× stock of each tested compound in DMSO was added directly into each well in a final volume of 250 μL culture medium and was gently mixed by pipetting. Control wells were prepared under the same experimental conditions by adding only DMSO at a final concentration of 0.2% (v/v). Compounds were not renewed during the entire period of cell exposure. All cells were cultured at 37 °C in a 5% (v/v) CO2 for 24, 48 or 72 h.
Briefly, after the treatment with OOPs, the adapted medium was removed from the dish wells and the cells were washed twice with medium without FBS. Then, the C-lysis (LT27-076) was diluted in PBS (1:2) and a volume of 50 μL was added to each well. Cells were incubated with C-lysis for at least 10 min. Finally, an equal volume of lysed cells from each well and ATP monitoring reagent (AMR; LT27-212) was transferred to the wells of a white-walled illuminometer plate (Greiner bio-one; 655074). Cell viability was quantified by measuring luminescence using a multi-mode microplate reader Safire^2 Tecan (software Magellan V6.00 STD.2PC WIN.20000/XP).

[3] = system: SK-BR-3; settings: cited from earlier work
[4] = system: MDA-MB 231; assay: Annexin V-FITC/PI staining, flow cytometry; assay type: cell-based, human
Excerpt: as §1, §2, §3

[5] = Homo sapiens, range across cancer cell lines, read-out: EC50, range over the cancer cell lines

EC50 [2, 5] [µM]	Compound	% Cell Viability ([1]; 48 h at EC50) [%]	Early Apoptotic (% ± S.D.) ([1]; 48 h at EC50) [%]	Late Apoptotic (% ± S.D.) ([1]; 48 h at EC50)	Total Apoptotic (%) ([1]; 48 h at EC50)	Bioactivity range on cancer cell lines (grade in words) [2]	% Cell Viability ([4]; 48 h at EC50) [%]	Early Apoptotic (% ± S.D.) ([4]; 48 h at EC50) [%]	Late Apoptotic (% ± S.D.) ([4]; 48 h at EC50) [%]	Total Apoptotic (%) ([4]; 48 h at EC50)	other results
	ligstroside aglycone [4a,b]	82	1.86 ± 0.8	No L.A.	1.86 ± 0.8	Very strong activity on lung cancer cell lines					EC50 ([2]; range across cancer cell lines, read-out: EC50, range over the cancer cell lines): 11.6 to 98.2 µM; EC50 ([3]; 5 day treatment, read-out: EC50): 26 ± 6 µM
9.1 to 44.6	C/C=C(/C=O)[C@@H](CC=O)CC(=O)OCCc1ccc(O)cc1 [compound 1, oleocanthal]	68	4.10 ± 0.2	2.47 ± 0.7%	6.57 ± 0.5	Very strong activity on 10/16 cancer cell lines	85	1.19 ± 0.01	1.38 ± 0.1	2.56 ± 0.1	EC50 ([2]; Homo sapiens, most cancer cell lines, read-out: EC50 in most cancer cell lines): 9 to 20 µM; EC50 ([3]; 48 h treatment in HGF- and EGF-supplemented media, ref Siddique et al. (2019) 76, read-out: EC50): 27.3 µM
11.9 to 50.1	COC(=O)C1=COC(C)[C@@H](C=O)[C@@H]1CC(=O)OCCc1ccc(O)c(O)c1 (mixture of isomers) [3a,b, oleuropein aglycone]	68	8.33 ± 1.9	4.91 ± 1.7%	13.24 ± 3.7	Very strong activity on 7/16 cancer cell lines	69	4.17± 0.4	3.87 ± 3.7	8.04 ± 4.1	EC50 ([3]; five days of treatment, ref Menendez et al. (2007) 17, read-out: concentration reducing cell viability by 50%): 47 µM
> 25	C/C=C(/C=O)[C@@H](CC=O)CC(=O)OCCc1ccc(O)c(O)c1 [compound 2, oleacein]	76	5.87 ± 1.1	No L.A.	5.87 ± 1.1	Good/moderate activity on 9/16 cancer cell lines	73	1.89 ± 0.03	1.49 ± 0.3	3.38 ± 0.2	% Cell Viability ([4]; 72 h at EC50): 70%; Early Apoptotic (% ± S.D.) ([4]; 72 h at EC50): 3.65 ± 0.5%; Late Apoptotic (% ± S.D.) ([4]; 72 h at EC50): 1.64 ± 0.5%; Total Apoptotic (%) ([4]; 72 h at EC50): 5.29 ± 1.0%; % Cell Viability ([1]; 72 h at EC50): 72%; Early Apoptotic (% ± S.D.) ([1]; 72 h at EC50): 6.70 ± 1.0%; Late Apoptotic (% ± S.D.) ([1]; 72 h at EC50): 1.34 ± 0.3%; Total Apoptotic (%) ([1]; 72 h at EC50): 8.04 ± 0.7%

From paper PMC9820430, “New Affordable Methods for Large-Scale Isolation of Major Olive Secoiridoids and Systematic Comparative Study of Their Antiproliferative/Cytotoxic Effect on Multiple Cancer Cell Lines of Different Cancer Origins” (International Journal of Molecular Sciences, 2022)
